Values quoted from earlier work, collected in patent US20210008004A1, “CANNABINOID FORMULATIONS AND METHODS INCLUDING THE ANTIOXIDANT C60” (priority 2017, published 2021).

Tests used:
[1] = tested on: rodent
[2] = molecular target: CB1 receptor (Homo sapiens, UniProt P21554)
[3] = molecular target: peripheral CB2-receptors (Homo sapiens, UniProt P34972); conditions: in vivo
peripheral CB2-receptors, sequence (P34972 whole entry): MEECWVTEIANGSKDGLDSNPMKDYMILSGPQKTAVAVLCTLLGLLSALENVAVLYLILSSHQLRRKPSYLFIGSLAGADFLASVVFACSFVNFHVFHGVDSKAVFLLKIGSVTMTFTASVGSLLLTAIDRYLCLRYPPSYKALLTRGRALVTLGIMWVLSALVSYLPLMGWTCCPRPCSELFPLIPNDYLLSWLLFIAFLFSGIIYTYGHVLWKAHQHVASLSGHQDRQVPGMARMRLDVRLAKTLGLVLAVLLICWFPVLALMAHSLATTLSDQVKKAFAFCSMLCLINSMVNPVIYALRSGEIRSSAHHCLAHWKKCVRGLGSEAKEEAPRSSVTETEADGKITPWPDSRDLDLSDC

CB1 receptor, sequence (P21554 whole entry): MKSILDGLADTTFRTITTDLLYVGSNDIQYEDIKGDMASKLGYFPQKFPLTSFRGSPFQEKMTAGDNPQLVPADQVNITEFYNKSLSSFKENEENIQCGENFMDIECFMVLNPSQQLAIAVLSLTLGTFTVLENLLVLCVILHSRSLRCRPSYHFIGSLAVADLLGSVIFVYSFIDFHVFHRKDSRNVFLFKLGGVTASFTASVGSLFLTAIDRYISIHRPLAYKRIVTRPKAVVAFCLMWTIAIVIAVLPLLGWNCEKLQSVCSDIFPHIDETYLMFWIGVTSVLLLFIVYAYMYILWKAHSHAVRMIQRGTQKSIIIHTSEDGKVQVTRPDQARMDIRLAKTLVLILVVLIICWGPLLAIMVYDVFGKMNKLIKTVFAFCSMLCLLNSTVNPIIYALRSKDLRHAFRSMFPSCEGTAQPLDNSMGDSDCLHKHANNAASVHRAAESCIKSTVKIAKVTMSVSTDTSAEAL

c12c3c4c5c1c1c6c7c2c2c8c3c3c9c4c4c%10c5c5c1c1c6c6c%11c7c2c2c7c8c3c3c8c9c4c4c9c%10c5c5c1c1c6c6c%11c2c2c7c3c3c8c4c4c9c5c1c1c6c2c3c41 [Example C60, buckminsterfullerene]
toxicity ([1]; even high doses): does not exhibit toxicity | rodent life span ([1]; some rodents): doubled | solubility in lipids or aqueous solutions: not typically soluble

COc1ccc(/C=C/c2cc(OC)cc(=O)o2)cc1 [Yangonin]
affinity to the CB1 receptor [2]: significant affinity

C=C1CC/C=C(\C)CC[C@@H]2[C@@H]1CC2(C)C [beta-caryophyllene]
agonist activity at peripheral CB2-receptors [3]: selective agonist
